Measured values reported in US20220233502A1, “COMPOSITION FOR PREVENTING OR TREATING ASTHMA, RHINITIS OR CONJUNCTIVITIS, COMPRISING N-ACYL AMINO ACID AS ACTIVE INGREDIENT” (STEMDR INC., priority 2019, published 2022).
“Also recorded” adds a separate entry of the source.

How the values were obtained:
Assay type in all cases: in vivo, BALB/c mice
IL-13 = test: Th2 cytokine IL-13 in bronchial wash (ELISA); conditions: OVA asthma mice; 3.5 μmol/kg oral once a day for 7 days from day 25; FIG. 5
Procedure: (§1) Specific pathogen-free BALB/c mice (6-week-old, male) were purchased from Doul Biotech (Osan, Korea). Experiment was started when the mice were 7- to 10-week old. The mice were housed in a laminar flow cabinet and were given water and feed ad libitum.
(§2) The mice were sensitized by intraperitoneally injecting 0.02 mg of ovalbumin (OVA) and alum (1 mg) (Sigma-Aldrich) as an immunologic adjuvant twice on days 0 and 14. For 4 days from day 28, the mice were placed in a plastic nebulizer container of a regular size and were made to inhale OVA in the form of an aerosol by spraying 5% OVA for 30 minutes (airway challenge).
(§3) The concentration of several cytokines (TNF-α, IL-4, IL-5, IL-13) in bronchial wash was measured using an ELISA kit (R&D Systems, Minneapolis, Minn., USA).
(§4) Th2 cytokines, IL-4, IL-5 and IL-13, are known to be involved in airway inflammation, bronchial hypersensitivity and IgE antibody production mediated by eosinophils. 3.5 μmol/kg N-acetyl-L-alanine, N-oleoyl-L-alanine, N-acetyl-L-tryptophan or N-oleoyl-L-tryptophan dissolved in 10 mL of phosphate-buffered saline was orally administered once a day, for 7 days from day 25 after the induction of asthma, and the cytokines were measured.

[1] = system: conjunctivitis-induced mice; test: OVA-induced conjunctivitis, clinical grading of conjunctival edema and flare; conditions: 10 μL of 100 μM intraocularly 30 minutes and 12 hours after challenge, scale 0 to 4+, FIG. 7
Procedure: as §1
The mice were sensitized by intraperitoneally injecting 0.02 mg of ovalbumin (OVA) and alum (1.5 mg) (Sigma-Aldrich) as an immunologic adjuvant twice on days 0 and 7. For 12 days from day 14, conjunctivitis was induced by injecting 10 μL of a solution of 100 μg of OVA dissolved in 20 μL of phosphate-buffered saline into each eye, once a day.
24 hours after the final injection of OVA (day 25), the clinical grading of conjunctival edema and flare (redness) was assessed using a portable slit lamp (Carl Zeiss, Oberkochen, Germany). The assessment was performed in a blinded fashion 2 hours after OVA injection. Each clinical parameter was scored on a scale of 0 to 4+(0 absent, 1+minimal, 2+mild, 3+moderate, 4+severe) as described in Merayo-Lloves, J., Calonge, M, and Foster, C. S. 1995. Experimental model of allergic conjunctivitis to ragweed in guinea pig. Curr. Eye Res. 14: 487-494. A negative control group was given no treatment.
Ovalbumin of Preparation Example 4 was used as an antigen to induce conjunctivitis. After challenging 100 μg of ovalbumin into the eye from day 15 to 26, 10 μL of each of N-acetyl-L-alanine, N-oleoyl-L-alanine, N-acetyl-L-tryptophan and N-oleoyl-L-tryptophan dissolved in phosphate-buffered saline to 100 μM was intraocularly administered 30 minutes and 12 hours later. On day 26, the clinical grading of conjunctival edema and flare (redness) was assessed using a portable slit lamp (Carl Zeiss, Oberkochen, Germany).

IL-4 = test: Th2 cytokine IL-4 in bronchial wash (ELISA); conditions: OVA asthma mice; 3.5 μmol/kg oral once a day for 7 days from day 25; FIG. 3
Procedure: as §1, §2, §3, §4

rhinitis-induced mice = test: OVA-induced allergic rhinitis, nasal rubbing and sneezing; conditions: 10 μL of 10 μM intranasally; for number of nasal rubbing: counted for 15 minutes on day 27, FIG. 6A; for number of sneezing: counted for 15 minutes on day 27, FIG. 6B
Procedure: as §1
The mice were sensitized by intraperitoneally injecting 0.02 mg of ovalbumin (OVA) and alum (1 mg) (Sigma-Aldrich) as an immunologic adjuvant twice on days 0 and 14. For 7 days from day 21, the mice were topically stimulated by injecting 10 μL of a solution of 100 μg of OVA dissolved in 20 μL of phosphate-buffered saline into both nasal cavities, once a day. After the final injection of OVA (day 27), symptom score was recorded by summing the numbers of nasal rubbing and sneezing. The symptom score was recorded for 15 minutes, and the result was compared between the groups.
Ovalbumin (OVA) of Preparation Example 3 was used as an antigen to induce allergic rhinitis. After OVA challenging from day 21 to day 26, 10 μL of each of N-acetyl-L-alanine, N-oleoyl-L-alanine, N-acetyl-L-tryptophan and N-oleoyl-L-tryptophan dissolved in phosphate-buffered saline to 10 μM was intranasally administered 12 hours later. After the final injection of OVA (day 27), symptom score was recorded by summing the numbers of nasal rubbing and sneezing. The symptom score was recorded for 15 minutes, and the result was compared between the groups.

[2] = system: asthma-induced mice (inflammatory cells in the airway); test: Inflammatory cells in bronchoalveolar lavage fluid of asthma-induced mice; conditions: OVA asthma mice; for inflow of eosinophils into the airway / WBC, bronchoalveolar lavage fluid: 3.5 μmol/kg oral once a day for 7 days from day 25; for inflow of eosinophils into the airway: result in words; for WBC Differential Counting (%) EOS (eosinophils) / WBC Differential Counting (%) MAC (macrophages) / WBC Differential Counting (%) MONO (monocytes) / WBC Differential Counting (%) NEU (neutrophils) / WBC Differential Counting (k/uL) EOS (eosinophils) / WBC Differential Counting (k/uL) MAC (macrophages) / WBC Differential Counting (k/uL) MONO (monocytes) / WBC Differential Counting (k/uL) NEU (neutrophils) / WBC, bronchoalveolar lavage fluid: mean, N=8; for WBC Differential Counting (%) EOS (eosinophils) / WBC Differential Counting (%) MAC (macrophages) / WBC Differential Counting (%) MONO (monocytes) / WBC Differential Counting (%) NEU (neutrophils) / WBC Differential Counting (k/uL) EOS (eosinophils) / WBC Differential Counting (k/uL) MAC (macrophages) / WBC Differential Counting (k/uL) MONO (monocytes) / WBC Differential Counting (k/uL) NEU (neutrophils): BAL fluid, 3.5 μmol/kg oral once a day for 7 days
Procedure: Specific pathogen-free BALB/c mice (6-week-old, male) were purchased from Doul Biotech (Osan, Korea). Experiment was started when the mice were 7- to 10-week old. The mice were housed in a laminar flow cabinet and were given water and feed ad libitum. The mice were sensitized by intraperitoneally injecting 0.02 mg of ovalbumin (OVA) and alum (1 mg) (Sigma-Aldrich) as an immunologic adjuvant twice on days 0 and 14. For 4 days from day 28, the mice were placed in a plastic nebulizer container of a regular size and were made to inhale OVA in the form of an aerosol by spraying 5% OVA for 30 minutes (airway challenge). After anesthetizing the mouse and inserting a tube into the bronchus, the bronchus was washed with a buffer and cells were obtained therefrom. The cells were centrifuged, suspended at 1×10^4 cells/100 μL, and fixed by centrifuging with a cytospin. Then, the number of eosinophils, monocytes, neutrophils and macrophages were measured by staining with Diff-Quik. Neutrophils, macrophages, monocytes and eosinophils were observed as inflammatory cells in the airway. Each of N-acetyl-L-alanine, N-oleoyl-L-alanine, N-acetyl-L-tryptophan and N-oleoyl-L-tryptophan was dissolved in 10 mL of phosphate-buffered saline to 3.5 μmol/kg and was orally administered for 7 days from day 25, once a day.

[3] = system: asthma-induced mice (lung tissue); test: H&E staining of lung tissue, degree of inflammation; conditions: OVA asthma mice; oral administration for a week; vs OVA-challenged group; FIG. 1
Procedure: as §1, §2
(§5) For histological assay, tissues taken out from the lung were fixed with formalin and embedded in paraffin. The embedded tissue was sliced to 4-μm thickness and subjected to 1) hematoxylin and eosin (H&E) staining for investigation of the degree of inflammation and 2) Masson's trichrome staining for investigation of the degree of pulmonary fibrosis.
Lung tissue was stained with H&E after oral administration of the drug for a week.

IL-5 = test: Th2 cytokine IL-5 in bronchial wash (ELISA); conditions: OVA asthma mice; 3.5 μmol/kg oral once a day for 7 days from day 25; FIG. 4
Procedure: as §1, §2, §3, §4

[4] = system: asthma-induced mice (lung tissue); test: Masson's trichrome staining of lung tissue, degree of fibrosis around the airway; conditions: OVA asthma mice; oral administration for a week; vs OVA-challenged group; FIG. 2
Procedure: as §1, §2, §5
Lung tissue was stained with Masson's trichrome after oral administration of the drug for a week.

SMILES | IL-13 secretion in airway (IL-13) | clinical grade of conjunctivitis (conjunctival edema and flare) [1] | IL-4 secretion in airway (IL-4) | number of nasal rubbing (rhinitis-induced mice) | number of sneezing (rhinitis-induced mice) | inflow of eosinophils into the airway [2] | WBC Differential Counting (%) EOS (eosinophils) [2] | WBC Differential Counting (%) MAC (macrophages) [2] | WBC Differential Counting (%) MONO (monocytes) [2] | WBC Differential Counting (%) NEU (neutrophils) [2] | WBC Differential Counting (k/uL) EOS (eosinophils) [2] | WBC Differential Counting (k/uL) MAC (macrophages) [2] | WBC Differential Counting (k/uL) MONO (monocytes) [2] | WBC Differential Counting (k/uL) NEU (neutrophils) [2] | WBC, bronchoalveolar lavage fluid [2] | inflammation around the airway, H&E staining of lung tissue [3] | IL-5 secretion in airway (IL-5) | fibrosis around the airway, Masson's trichrome staining of lung tissue [4]
CC(=O)N[C@@H](C)C(=O)O [NAA, N-acetyl-L-alanine] | significantly inhibited | remarkably increased clinical grades | significantly inhibited | remarkably decreased | remarkably decreased | significantly inhibited | 10.1% | 81.8% | 3.3% | 4.9% | 0.04 k/uL | 0.32 k/uL | 0.01 k/uL | 0.02 k/uL | 0.39 ×10^2 cells/μL | remarkably inhibited inflammation | significantly inhibited | inhibited fibrosis
CC(=O)N[C@@H](Cc1c[nH]c2ccccc12)C(=O)O [NAT, N-acetyl-L-tryptophan] | significantly inhibited | remarkably increased clinical grades | significantly inhibited | remarkably decreased | remarkably decreased | significantly inhibited | 20.1% | 71.8% | 3.9% | 4.1% | 0.10 k/uL | 0.33 k/uL | 0.02 k/uL | 0.02 k/uL | 0.47 ×10^2 cells/μL | remarkably inhibited inflammation | significantly inhibited | inhibited fibrosis
CCCCCCCC/C=C\CCCCCCCC(=O)N[C@@H](C)C(=O)O [NOA, N-oleoyl-L-alanine] | significantly inhibited | remarkably increased clinical grades | significantly inhibited | remarkably decreased | remarkably decreased | significantly inhibited | 3.4% | 87.3% | 3.8% | 5.5% | 0.01 k/uL | 0.34 k/uL | 0.01 k/uL | 0.02 k/uL | 0.38 ×10^2 cells/μL | remarkably inhibited inflammation; also recorded: highest inhibition of inflammation | significantly inhibited | inhibited fibrosis; also recorded: highest inhibition
CCCCCCCC/C=C\CCCCCCCC(=O)N[C@@H](Cc1c[nH]c2ccccc12)C(=O)O [NOT, N-oleoyl-L-tryptophan] | significantly inhibited | remarkably increased clinical grades | significantly inhibited | remarkably decreased | remarkably decreased | significantly inhibited | 17.0% | 74.3% | 3.6% | 5.1% | 0.07 k/uL | 0.32 k/uL | 0.01 k/uL | 0.02 k/uL | 0.43 ×10^2 cells/μL | remarkably inhibited inflammation | significantly inhibited | inhibited fibrosis
